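How tested: cells in 96-well plates exposed to compound for 48 hours at five concentrations. GI50: concentration for 50% inhibition of growth.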 Calls of active or inactive are those of the source. Rule as the data show it: active = GI50 up to about 1.1 µM and inactive = higher.
Experiments:
Assay in all cases: NCI anticancer screen, dose series, 48 h
OVCAR-4 = system: OVCAR-4
SNB-78 = system: SNB-78
IGROV-1 = system: IGROV-1
DMS-273 = system: DMS-273
LOX IMVI = system: LOX IMVI
XF498 = system: XF498
KM-20L2 = system: KM-20L2
OVCAR-8 = system: OVCAR-8
NCI-H460 = system: NCI-H460
ACHN = system: ACHN
TK-10 = system: TK-10
HT-29 = system: HT-29
SK-MEL-28 = system: SK-MEL-28
SNB-75 = system: SNB-75
NCI-H522 = system: NCI-H522
SNB-19 = system: SNB-19
DLD-1 = system: DLD-1
MOLT-4 = system: MOLT-4
SN12C = system: SN12C
Malme-3M = system: Malme-3M

Measured: GI50

CCCCCCCCCCCCCCCCCC(=O)OCC1OC(OC)C(NC(=O)N(CCCl)N=O)C(O)C1O (stereo not given)
inactive: OVCAR-4 24 µM | SNB-78 40.4 µM | IGROV-1 32.5 µM | DMS-273 16 µM | LOX IMVI 13.6 µM | XF498 20.7 µM | KM-20L2 > 10 µM | OVCAR-8 33.5 µM | NCI-H460 5.96 µM | ACHN 15.7 µM | TK-10 38.3 µM | HT-29 20.9 µM | SK-MEL-28 21.6 µM | SNB-75 13.8 µM | NCI-H522 17.1 µM | SNB-19 24.9 µM | DLD-1 28.1 µM | MOLT-4 4.41 µM | SN12C 11.4 µM | Malme-3M 26.1 µM

— ChEMBL document CHEMBL1201862, “PubChem BioAssay data set” (2004)
